Measurements reported in patent US7253286B2, “Nitrogen-containing aromatic derivatives” (Eisai Co., Ltd, priority 2000, dated 2007).

What follows are compounds tested on Human Umbilical Vein Endothelial Cells (HUVECs) (assay: Inhibition against sandwich tube formation by vascular endothelial cells in response to stimulation by VEGF). Settings: HUVEC in collagen gel sandwich, stimulation by VEGF (25 ng/ml VEGF and 10 ng/ml EGF), 4th day, total tube length, read-out: IC50 (concentration required for 50% inhibition of tube formation).
Type: cell-based
Method: Inhibition Against Sandwich Tube Formation by Vascular Endothelial Cells in Response to Stimulation by Angiogenic Factor
Human Umbilical Vein Endothelial Cells (HUVECS) were isolated by the same method as in Pharmacological Test Example 1, and were cultured in a 5% CO2 incubator (37° C.) using EGM-2 medium (purchased from Clonetics Corp.) until the cells reached confluency.
An ice-cooled mixture of collagen: 5× RPMI 1640: reconstitution buffer (all purchased from Nitta Gelatin, Inc.) at 7:2:1 was dispensed at 0.4 ml into each well of a 24-well plate, and then stationed for 40 minutes in a 5% CO2 incubator (37° C.) for gelling. The HUVECs were recovered using trypsin-EDTA and then suspended in human endothelial serum free medium (SFM, purchased from GIBCO BRL) containing added angiogenic factors [20 ng/ml FGF2 (purchased from GIBCO BRL) and 10 ng/ml EGF (purchased from GIBCO BRL), or 25 ng/ml VEGF (purchased from Wako Pure Chemical Industries Co., Ltd.) and 10 ng/ml EGF, or 30 ng/ml HGF (purchased from R&D Co.) and 10 ng/ml EGF], and the cell suspension was added at 0.4 ml to each well (with the cell counts differing slightly according to the HUVEC lot), and cultured overnight in a 5% CO2 incubator (37° C.). On the following day, the medium on the upper layer was aspirated off, and then 0.4 ml of an ice-cooled mixture of collagen: 5× RPMI 1640: reconstitution buffer (all purchased from Nitta Gelatin, Inc.) at 7:2:1 was superposed into each well prior to stationing for 4 hours in a 5% CO2 incubator (37° C.) for gelling. After adding 1.5 ml of an SFM solution containing each of the aforementioned angiogenic factors and a diluted test substance onto the upper layer, culturing was performed in a 5% CO2 incubator (37° C.). Upon aspirating off the culture supernatant in each well on the 4th day after addition of the test substance, 0.4 ml of a 3.3 mg/ml MTT solution dissolved in PBS (purchased from Sigma Corp.) was added to each well and culturing was performed for approximately 2 hours in a 5% CO2 incubator (37° C.). The tubes formed in the collagen gel of each well were stained by the MTT, the tube images were loaded into a computer (Macintosh), and the total length of the tubes was determined by image analysis software “MacScope” (purchased from Mitani Corp.). The ratio of the total length of the tubes formed in the well containing the test substance with respect to the total length of the tubes formed in the well containing no test substance was expressed as a percentage, and the concentration of each test substance required for 50% inhibition of tube formation (IC50) was determined from the ratio value.

In order of falling IC50:
1. CS(=O)(=O)CCOc1cc2nccc(Oc3ccc(NC(=O)Nc4ccc(F)cc4)cc3)c2cc1C#N [Example 59, N-(4-(6-Cyano-7-(2-(methylsulfonyl)ethoxy)-4-quinolyl)oxyphenyl)-N′-(4-fluorophenyl)urea]  170 nM
2. CCN(CC)CCCNC(=O)n1ccc2cc(Oc3ccnc4cc(OC)c(C(N)=O)cc34)ccc21 [Example 327, 6-Carbamoyl-4-[1-(3-diethylaminopropylcarbamoyl)1H-indol-5-yloxy]-7-methoxyquinoline]  56 nM
3. COCCOc1cc2nccc(Sc3ccc(NC(=O)Nc4ccccc4F)s3)c2cc1C#N [Example 256, 1-{5-[6-Cyano-7-(2-methoxyethoxy)quinolin-4-ylsulfanyl]thiophen-2-yl}-3-(2-fluorophenyl)urea]  36 nM
4. CCN(CC)CCCOc1cc2nccc(Oc3ccc4[nH]ccc4c3)c2cc1C#N [Example 296, 7-(3-Diethylaminopropoxy)-4-(1H-indol-5-yloxy)quinoline-6-carbonitrile]  34 nM
5. COCCOc1cc2nccc(Oc3ccc(NC(=O)Nc4cccc(C#N)c4)cc3)c2cc1C#N [Example 19, N-(4-(6-Cyano-7-(2-methoxyethoxy)-4-quinolyl)oxyphenyl)-N′-(3-cyanophenyl)urea]  28 nM
6. COc1cc2nccc(Oc3ccc(NC(=O)NC4CC4)c(Cl)c3)c2cc1C(=O)Nc1ncc[nH]1 [Example 405, N6-(1H-2-Imidazolyl)-4-(3-chloro-4-(((cyclopropylamino)carbonyl)amino)phenoxy)-7-methoxy-6-quinolinecarboxamide]  28 nM
7. COc1cc2nccc(Oc3ccc(NC(=O)Nc4nccs4)nc3)c2cc1OC [Example 224, N-(5-(6,7-Dimethoxyquinolin-4-yloxy)pyridin-2-yl)-N′-(thiazol-2-yl)urea]  26 nM
8. COc1cc2nccc(Oc3ccc(NC(=O)NC4CC4)c(C)c3C)c2cc1C(N)=O [Example 490, N-[4-(6-Carbamoyl-7-methoxy-4-quinolyl)oxy-2,3-dimethylphenyl]-N′-cyclopropylurea]  26 nM
9. C#Cc1c(Oc2ccc(NC(=O)Nc3ccc(F)cc3)cc2)ccnc1N(C(=O)C1CC1)C(=O)C1CC1 [Example 186, N1-Cyclopropylcarbonyl-N1-[3-(1-ethynyl)-4-(4-{[(4-fluoroanilino)carbonyl]amino}phenoxy)-2-pyridyl]-1-cyclopropanecarboxamide]  23 nM
10. COCCNC(=O)c1cc2c(Oc3ccc(N(C)C(=O)Nc4ccc(F)cc4)cc3)ccnc2cc1OC [Example 436, N6-(2-Methoxyethyl)-4-(4-(((4-fluoroanilino)carbonyl)(methyl)amino)phenoxy)-7-methoxy-6-quinolinecarboxamide]  22 nM
11. N#Cc1cc2c(Oc3ccc(NC(=O)Nc4ccc(F)cc4)c(F)c3)ccnc2cc1OCCCC(=O)NC1CC1 [Example 137, N-(4-(6-Cyano-7-(3-((cyclopropylamino)carbonyl)propoxy)-4-quinolyl)oxy-2-fluorophenyl)-N′-(4-fluorophenyl)urea]  10 nM
12. NC(=O)c1cc2c(Oc3ccc(NC(=O)NC4CC4)c(Cl)c3)ccnc2cc1OCCO [Example 386, 4-(3-Chloro-4-(cyclopropylaminocarbonyl)aminophenoxy)-7-(2-hydroxyethoxy)-6-quinolinecarboxamide]  10 nM
13. CCN(CC)C[C@@H](O)COc1cc2nccc(Oc3ccc(NC(=O)Nc4ccc(F)cc4)cc3)c2cc1C#N [Example 455, N-(4-((6-Cyano-7-(((2R)-3-(diethylamino)-2-hydroxypropyl)oxy)-4-quinolyl)oxy)phenyl)-N′-(4-fluorophenyl)urea]  7.8 nM
14. CCN(CC)CCCOc1cc2nccc(Oc3ccc4c(ccn4C(=O)Nc4nccs4)c3)c2cc1C#N [Example 300, 5-[6-Cyano-7-(3 diethylaminopropoxy)quinolin-4-yloxy]indole-1-carboxylic acid (thiazol-2-yl)amide]  7.5 nM
15. CN1CCCC(COc2cc3nccc(Oc4ccc(NC(=O)Nc5ccc(F)cc5)c(F)c4)c3cc2C#N)C1 (stereo not shown) [Example 127, N-(4-(6-Cyano-7-((1-methylpiperidin-3-yl)methoxy)-4-quinolyl)oxy-2-fluorophenyl)-N′-(4-fluorophenyl)urea]  7.5 nM
16. N#Cc1cc2c(Oc3ccc(NC(=O)Nc4ccc(F)cc4)c(F)c3)ccnc2cc1OCC(O)CN1CCCC1 (stereo not shown) [Example 492, N-{4-[6-Cyano-7-(2-hydroxy-3-(pyrrolidin-1-yl)propoxy)quinolin-4-yloxy]-2-fluorophenyl}-N′-(4-fluorophenyl)urea]  7.2 nM
17. N#Cc1cc2c(Oc3ccc(NC(=O)Nc4nccs4)c(F)c3)ccnc2cc1OCC1CCNCC1 [Example 503, N-{4-[6-Cyano-7-(piperidin-4-ylmethoxy)quinolin-4-yloxy]-2-fluorophenyl}-N′-(2-thiazolyl)urea]  6.4 nM
18. CN1CCC(COc2cc3nccc(Oc4ccc5c(ccn5C(=O)Nc5nccs5)c4)c3cc2C#N)CC1 [Example 308]  5.2 nM
19. CS(=O)(=O)CCCOc1cc2nccc(Oc3ccc(NC(=O)Nc4ccc(F)cc4)cc3)c2cc1C#N [Example 108, N-(4-(6-Cyano-7-(3-(methylsulfonyl)propoxy)-4-quinolyloxy)phenyl)-N′-(4-fluorophenyl)urea]  4.9 nM
20. CN1CCC(COc2cc3nccc(Oc4ccc(NC(=O)Nc5nccs5)c(F)c4)c3cc2C#N)CC1 [Example 504, N-{4-[6-Cyano-7-(1-methylpiperidin-4-ylmethoxy)quinolin-4-yloxy]-2-fluorophenyl}-N′-(2-thiazolyl)urea]  4.6 nM
21. N#Cc1cc2c(Oc3ccc4c(ccn4C(=O)Nc4nccs4)c3)ccnc2cc1OCCCN1CCCC1 [Example 289, 5-[6-Cyano-7-(3-(pyrrolidin-1-yl)propoxy)quinolin-4-yloxy]indole-1-carboxylic acid (thiazol-2-yl)amide]  4.6 nM
22. COc1cc2nccc(Oc3ccc(NC(=O)NC4CC4)c(Cl)c3)c2cc1C(=O)NCC1CC1 [Example 446, N6-Cyclopropylmethyl-4-(3-chloro-4-(((cyclopropylamino)carbonyl)amino)phenoxy)-7-methoxy-6-quinolinecarboxamide]  4 nM
23. N#Cc1cc2c(Oc3ccc(NC(=O)Nc4ccc(F)cc4)cc3)ccnc2cc1OC[C@H](O)CN1CCCC1 [Example 454, N-(4-((6-Cyano-7-(((2R)-2-hydroxy-3-(1-pyrrolidino)propyl)oxy)-4-quinolyl)oxy)phenyl)-N′-(4-fluorophenyl)urea]  3.7 nM
24. COCCNC(=O)c1cc2c(Oc3ccc(NC(=O)NC4CC4)c(Cl)c3)ccnc2cc1OCCOC [Example 249, N6-(2-Methoxyethyl)-4-(3-chloro-4-{[(cyclopropylamino)carbonyl]amino}phenoxy)-7-(2-methoxyethoxy)-6-quinolinecarboxamide]  1.6 nM
25. CCNC(=O)n1ccc2cc(Oc3ccnc4cc(OC)c(C(=O)NOC)cc34)ccc21 [Example 520, 6-Methoxycarbamoyl-7-methoxy-4-((1-ethylcarbamoyl)indol-5-yloxy)quinoline]  1.5 nM
26. COc1cc2nccc(Oc3ccc(NC(=O)NC4CC4)c(Cl)c3)c2cc1C(=O)NCCC#N [Example 440, N6-(2-Cyanoethyl)-4-(3-chloro-4-(((cyclopropylamino)carbonyl)amino)phenoxy)-7-methoxy-6-quinolinecarboxamide]  1.4 nM
27. CCNC(=O)n1ccc2cc(Oc3ccnc4cc(OC)c(C(=O)NCCF)cc34)ccc21 [Example 518]  1.3 nM
28. CCN(CC)C[C@@H](O)COc1ccc(-c2cc3c(Oc4ccc(NC(=O)NC5CC5)c(Cl)c4)ncnc3[nH]2)cc1 [Example 157]  0.9 nM
29. CONC(=O)c1cc2c(Oc3ccc4c(ccn4C(=O)NC4CC4)c3)ccnc2cc1OC [Example 521, 6-Methoxycarbamoyl-7-methoxy-4-((1-cyclopropylcarbamoyl)indol-5-yloxy)quinoline]  0.5 nM
30. CCNC(=O)n1ccc2cc(Oc3ccnc4cc(OCC5CCN(C)CC5)c(C#N)cc34)ccc21 [Example 304, 6-Cyano-4-(1-ethylcarbamoylindol-5-yloxy)-7-[(1-methylpiperidin-4-yl)methyloxy]quinoline]  0.3 nM
31. O=C(C1CC1)N(C(=O)C1CC1)c1cc(Oc2ccc3c(ccn3C(=O)NC3CC3)c2)ccn1 [Example 211, N1-Cyclopropyl-5-({2-[di(cyclopropylcarbonyl)amino]-4-pyridyl}oxy)-1H-1-indolecarboxamide]  0.3 nM
